Where a chain is given by its changes, count along the chain named. Names may count otherwise. “Also recorded” adds a separate entry of the source. Where two headings read alike, the source gives them in different places.
Assays:
[1] = target: T1, LIN2189 WT (L. innocua Gyrl-like protein, wild type, SEQ ID NO:6) (Listeria innocua, UniProt Q929T5); assay: Fluorescence binding assay (enhancement/quenching of dye fluorescence)
T1 construct: recombinant, purified
T1 sequence (Q929T5 with tags, fused parts or gaps): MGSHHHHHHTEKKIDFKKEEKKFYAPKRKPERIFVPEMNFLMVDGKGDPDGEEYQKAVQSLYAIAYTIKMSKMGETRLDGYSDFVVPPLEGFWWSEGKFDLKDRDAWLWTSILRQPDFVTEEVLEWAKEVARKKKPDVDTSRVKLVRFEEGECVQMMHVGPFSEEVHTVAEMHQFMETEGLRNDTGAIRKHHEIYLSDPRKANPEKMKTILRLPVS
Method: Fluorescence Binding Assay
CTR107 when added at 10 μM induced a 10-fold increase in DFHBI fluorescence (FIG. 6A).
Malachite Green fluoresces in the far-red regions when stimulated by binding aptamers, therefore we monitored its fluorescence emission at 665-720 nm after exciting at 635 nm.
Thioflavin T is a benzothiazole dye that has also been used in many fluorescence applications. […] The Corn aptamer is able to bind to two Thioflavin T molecules at a homodimer interface formed by G-quadruplexes. We tested whether Gyrl-like proteins could function as fluorescence enhancement aptamers of Thioflavin T. Thioflavin T has excitation and emission maxima of […], respectively. We probed the fluorescence enhancing properties of SAV2435, CTR107 and LIN2189 variants on Thioflavin T (FIG. 8). […] All other variants display either a small 4-6 fold increase or no increase in Thioflavin T fluorescence.

[2] = target: T2, SAV2435 WT (S. aureus Gyrl-like protein, wild type, SEQ ID NO:2) (Staphylococcus aureus, UniProt A0A0H3K0Y5); assay type: binding
T2 construct: listing organism Escherichia coli is only the host

[3] = target: T3, CTR107 WT (C. tepidium Gyrl-like protein, wild type, SEQ ID NO:4) (Chlorobaculum tepidum, UniProt Q8KFZ1); assay: biochemical; assay type: binding; settings: for Kd: read-out: dissociation constant
T3 construct: begins […]

[4] = tested on: C. tepidium CTR107 variant Y106W (SEQ ID NO:20); assay: biochemical; assay type: binding
[5] = target: T4, C. tepidium CTR107 variant Y106W (SEQ ID NO:20) (Chlorobaculum tepidum, UniProt Q8KFZ1, Y106W); assay: biochemical; assay type: binding
T4 sequence (Q8KFZ1 with tags, fused parts or gaps Y106W): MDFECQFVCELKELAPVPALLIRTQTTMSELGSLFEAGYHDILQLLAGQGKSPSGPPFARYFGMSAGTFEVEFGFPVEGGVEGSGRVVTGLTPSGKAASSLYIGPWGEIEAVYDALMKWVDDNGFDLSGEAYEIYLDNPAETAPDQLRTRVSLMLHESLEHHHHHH

[6] = target: S. aureus SAV2435 variant P106W (SEQ ID NO:12) (Staphylococcus aureus, UniProt A0A0H3K0Y5, P106W); assay type: binding
[7] = target: S. aureus SAV2435 variant V105W (SEQ ID NO:10) (Staphylococcus aureus, UniProt A0A0H3K0Y5, V105W); assay type: binding
[8] = target: S. aureus SAV2435 variant N27W (SEQ ID NO:8) (Staphylococcus aureus, UniProt A0A0H3K0Y5, Q27W); assay type: binding; settings: Oxazine 170
[9] = target: S. aureus SAV2435 variant Y137W (SEQ ID NO:16) (Staphylococcus aureus, UniProt A0A0H3K0Y5, V105W/Y137W); assay type: binding; settings: Oxazine 170
[10] = target: S. aureus SAV2435 variant E135Q (SEQ ID NO:14) (Staphylococcus aureus, UniProt A0A0H3K0Y5, E135Q/V105W); assay type: binding; settings: Oxazine 170
[11] = target: C. tepidium CTR107 variant E36R (SEQ ID NO:18) (Chlorobaculum tepidum, UniProt Q8KFZ1, E36R); assay type: binding; settings: 500 nM SYTO9
[12] = target: T5, C. tepidium CTR107 variant E133Q (SEQ ID NO:22) (Chlorobaculum tepidum, UniProt Q8KFZ1, E133Q); assay type: binding; settings: 500 nM SYTO9
T5 sequence (Q8KFZ1 with tags, fused parts or gaps E133Q): T4 sequence (Q8KFZ1 with tags, fused parts or gaps Y106W) with W106Y, E133Q

[13] = FAM fluorescence quenching assay; assay type: biochemical; settings: 1 μM FAM, saturating protein
From the text: The fluorescence enhancing or quenching properties of Gyrl-like proteins can be used as a tool for identifying aptamers for target organic compounds. Building on Examples 1-8 we designed a protocol for identifying aptamers that bind to fluorescent dyes 5(6)-Carboxyfluorescein (FAM) and 5-Carboxytetramethylrhodamine (TAMRA) (FIG. 4). Both dyes are similar in structure and fluorescence in the green and red regions, respectively. The binding of FAM and TAMRA by Gyrl-like variant aptamers will result in enhancement or quenching of fluorescence. The invention method starts with screening our 3-selected wildtype Gyrl-like proteins to determine which can alter the fluorescence of FAM in solution (FIG. 11A).

TAMRA-DNA = assay: TAMRA-labeled DNA fluorescence quenching assay; settings: 5 nM protein
[14] = Colorimetric conversion of Iodonitrotetrazolium to Formazan; settings: 100 μM NADH; 500 μM Iodonitrotetrazolium; 5 minutes
[15] = Acridine Orange fluorescence assay; settings: 500 nM Acridine Orange
[16] = pH stability of Thiazole Orange fluorescence module
[17] = UV fluorescence quenching of Oxazine 170 and reversibility; settings: UV light
[18] = 500 nM Malachite Green, 10 μM protein, ex 635 nm, em 665-720 nm
[19] = 100 nM Oxazine 170, 100 nM protein
[20] = 500 nM Oxazine 170, saturating protein
[21] = 1 μM Thiazole Orange, saturating protein
[22] = 1 μM SYTO9, 10 μM protein, em 665-720 nm
[23] = 1 μM SYTO9, 10 μM protein, ex 470 nm, em 510-580 nm

T3 sequence (Q8KFZ1 entry or part of it): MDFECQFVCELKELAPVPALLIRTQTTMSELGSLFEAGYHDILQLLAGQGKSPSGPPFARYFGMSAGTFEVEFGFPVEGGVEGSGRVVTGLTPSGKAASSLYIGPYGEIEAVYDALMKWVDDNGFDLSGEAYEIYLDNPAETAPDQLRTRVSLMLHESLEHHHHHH
Chain of C. tepidium CTR107 variant E36R (SEQ ID NO:18) (Q8KFZ1 entry or part of it E36R): as the sequence (Q8KFZ1 entry or part of it) above, with E36R counted along it

In the case of `CC1=N/C(=C\c2cc(F)c(O)c(F)c2)C(=O)N1C` [DFHBI], the effect on fluorescence ([1]; 500 nM DFHBI) is reported as “no effect on fluorescence”, the “increase in fluorescence (green channel)” value ([2]; 500 nM DFHBI, 10 μM protein) is reported as 20 fold and the increase in fluorescence ([3]; DFHBI, 10 μM protein) is reported as 10 fold.

In the case of `COc1cccc2c1C(=O)c1c(O)c3c(c(O)c1C2=O)C[C@@](O)(C(C)=O)C[C@@H]3O[C@H]1C[C@H](N)[C@H](O)[C@H](C)O1` [Daunorubicin], the “fluorescence decrease (green channel)” value ([3]; 50 μM daunorubicin) is reported as “greater than 2 fold”, the Kd ([3]; Daunorubicin, nonlinear regression, Hill equation) is reported as 4000 nM and the “increase in binding affinity compared to wildtype CTR107” value ([4]; Daunorubicin) is reported as “approximately 100 fold”. For the same molecule, the Kd [5] was 42 nM and the “fluorescence decrease (green channel)” value ([5]; 50 μM daunorubicin) was 3 fold.

With `CN(C)c1ccc(C(=C2C=CC(=[N+](C)C)C=C2)c2ccccc2)cc1` [Malachite Green] the “effect on fluorescence enhancement” value ([1]; 500 nM Malachite Green) was “no effect on fluorescence enhancement”, the “increase in fluorescence (red channel)” value [2, 18] was 10 fold and the “increase in fluorescence (red channel)” value [3, 18] was 18 fold.

For `CCN=c1cc2oc3cc(NCC)c(C)cc3nc-2c2ccccc12` [Oxazine 170], the “fluorescence decrease at 100 nM protein” value [6, 19] was 60%, the “fluorescence decrease at 100 nM protein” value [7, 19] was 60% and the “protein concentration for 50% quenching” value ([2]; 100 nM Oxazine 170) was 10 to 50 nM. The “fluorescence shut-off at 100 nM protein” value [2, 19] was ~100%, the “decrease in fluorescence (red channel)” value [2, 20] was 303 fold and the shut-off of fluorescence [2, 20] was ~100%. For the same molecule, the “reduction in fluorescence (red channel)” value [3, 20] was 6 fold, the reduction in fluorescence [8] was 529 fold and the shut-off of fluorescence [8] was ~100%. For the same molecule, the quenching effect [9] was “small decrease”, the “quenching potency relative to CTR107 WT” value ([4]; Oxazine 170) was 5 fold and the decrease in fluorescence ([5]; Oxazine 170) was 47 fold. For the same molecule, the reduction in fluorescence [10] was 303 fold and the shut-off of fluorescence [10] was ~100%.

With `CN1C(=Cc2cc[n+](C)c3ccccc23)Sc2ccccc21` [Thiazole Orange] the effect on fluorescence [1, 21] was “no effects”, the “fluorescence enhancement vs. dye alone (red channel)” value ([6]; Thiazole Orange) was 50 fold and the “enhancement relative to wildtype” value ([6]; Thiazole Orange, vs SAV2435 WT) was 3 fold. For the same molecule, the “fluorescence enhancement vs. dye alone (red channel)” value ([7]; Thiazole Orange) was 50 fold, the “enhancement relative to wildtype” value ([7]; Thiazole Orange, vs SAV2435 WT) was 3 fold and the “increase in fluorescence (green channel)” value [2, 21] was 50 fold. The “increase in fluorescence (red channel)” value [2, 21] was 5 fold, the “fluorescence increase (channel not stated)” value ([2]; Thiazole Orange) was 20 fold and the effect on fluorescence [3, 21] was “no effects; also recorded: no enhancement”. The “fluorescence enhancement (green channel)” value ([5]; Thiazole Orange) was 13 fold and the “fluorescence enhancement (red channel)” value ([5]; Thiazole Orange) was 20 fold.

For `Cc1ccc2c(c1)sc(-c1ccc(N(C)C)cc1)[n+]2C` [Thioflavin T], the “fluorescence enhancement (green channel)” value ([1]; Thioflavin T) was 13 fold, the “fluorescence enhancement (red channel)” value ([1]; Thioflavin T) was 50 fold and the “fluorescence enhancement (green and red channel)” value ([3]; Thioflavin T) was 50 fold.

In the case of SYTO9, the “fluorescence enhancement (red and green channel)” value ([1]; SYTO9) is reported as “small enhancement”, the “fluorescence enhancement compared to wildtype CTR107” value [11] is reported as “weaker enhancement than wildtype” and the “fluorescence enhancement (red channel)” value [2, 22] is reported as 11 fold. The “fluorescence enhancement (green channel)” value [2, 23] was 21 fold, the “fluorescence enhancement (red channel)” value [3, 22] was 33 fold and the “fluorescence enhancement (green channel)” value [3, 23] was 84 fold. The Kd ([3]; SYTO9, estimated, fluorescence enhancement vs. protein concentration, Hill fit) was 302 nM, the “fluorescence enhancement (green channel)” value [12] was 157 fold and the “fluorescence enhancement (red channel)” value [12] was 55 fold. For the same molecule, the “fluorescence enhancement (green channel)” value ([5]; 500 nM SYTO9) was 115 fold and the “fluorescence enhancement (red channel)” value ([5]; 500 nM SYTO9) was 19 fold.

B1: LIN2189 E157A: LIN2189 variant aptamer, SEQ ID NO:28 (protein, listed as Escherichia coli)
chain: T1 sequence (Q929T5 with tags, fused parts or gaps) with E165A
With B1 the “decrease in FAM fluorescence” value [13] was “no changes in fluorescence quenching compared to LIN2189 WT” and the “effect on 100 nM TAMRA-DNA fluorescence” value (TAMRA-DNA) was “no effects on TAMRA fluorescence”.

B2: CTR107 E133Q: CTR107 variant aptamer, SEQ ID NO:22 (protein, listed as Escherichia coli)
chain: T4 sequence (Q8KFZ1 with tags, fused parts or gaps Y106W) with W106Y, E133Q
For B2, the “color change of Iodonitrotetrazolium with NADH” value [14] was “faint red signal” and the “Acridine Orange fluorescence increase” value [15] was “doubled the fluorescence intensity”.

B3: SAV2435 P106W: SAV2435 variant aptamer, SEQ ID NO:12 (protein, listed as Escherichia coli)
chain: MEYQLQQLASLTLVGIKETYENGRQAQQHIAGFWQRCYQEGVIADLQLKNNGDLAGILGLCIPELDGKMSYMIAVTGDNSADIAKYDVITLASSKYMVFEAQGAVWKAVQQKMEEVHHYIHQYQANTVKSAPFFELYQDGDTTSEKYITEIWMPVKGLEHHHHHH
With B3 the “decrease in Thiazole Orange fluorescence under acidic conditions” value ([16]; pH 3) was 2 fold, the “stability of Thiazole Orange fluorescence under basic conditions” value ([16]; pH 11) was “slightly more stable than acidic” and the “Acridine Orange fluorescence increase” value [15] was “doubled the fluorescence intensity”.

B4: SAV2435 Y137W: SAV2435 variant aptamer, SEQ ID NO:16 (protein, listed as Escherichia coli)
chain: B3 chain with V105W, W106P, Y137W
In the case of B4, the “shut-off of Oxazine 170 red UV fluorescence” value [17] is reported as “non-quencher”.

B5: SAV2435 E135Q: SAV2435 variant aptamer, SEQ ID NO:14 (protein, listed as Escherichia coli)
chain: B3 chain with V105W, W106P, E135Q
With B5 the “Acridine Orange fluorescence increase” value [15] was “doubled the fluorescence intensity”.
